Reference: the supplement of paper PMC7017272
± gives the standard deviation of the averaged measurements.

Tests used:
Settings in all cases: treatment time: 3 days
UT-SCC-40 = experiment: drug sensitivity score (DSS); higher = more sensitive; extreme values may be limits of the assay
Summary of the method: (§1)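 Viability of HPV-negative HNSCC cell lines was measured by CellTiter-Glo 2.0 luminescence. Cells were seeded at 500 cells/well in 384-well plates on plastic, on Matrigel- or Myogel-coated wells (500 µg/mL), or embedded in Matrigel or Myogel plus rat collagen I, then given compounds at five 10-fold concentrations for 3 days, with signals normalised to vehicle (0.1% DMSO) and cell-killing control wells. Fitting of percent-inhibition dose–response curves in the FIMM pipeline yielded IC50, maximal inhibition and drug sensitivity score.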

UT-SCC-73 = experiment: as above
Summary of the method: as §1

UT-SCC-44 = experiment: as above
Summary of the method: as §1

UT-SCC-42A = experiment: as above
Summary of the method: as §1

UT-SCC-106A = experiment: as above
Summary of the method: as §1

UT-SCC-42B = experiment: as above
Summary of the method: as §1

UT-SCC-14 = experiment: as above
Summary of the method: as §1

UT-SCC-28 = experiment: as above
Summary of the method: as §1

UT-SCC-24B = experiment: as above
Summary of the method: as §1

UT-SCC-8 = experiment: as above
Summary of the method: as §1

UT-SCC-81 = experiment: as above
Summary of the method: as §1

UT-SCC-24A = experiment: drug sensitivity score (DSS); higher = more sensitive
Protocol: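 HNSCC cell lines (500 cells/well, 384-well) were cultured on plastic, on top of (2D) or embedded (3D) in Matrigel or human leiomyoma matrix Myogel (500 ug/mL; Myogel 3D mixed with rat collagen I). Cells were treated for 3 days with 5 ten-fold concentrations of each drug, and viability was read by CellTiter-Glo. Suffixes _1/_2/_3 on drug names are replicates.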

[1] = culture condition: embedded in Matrigel
[2] = culture condition: embedded in Myogel + collagen I
[3] = culture condition: on top of Matrigel
[4] = culture condition: on top of Myogel
[5] = culture condition: plastic 2D (no matrix)

COc1cc2ncnc(Nc3ccc(F)c(Cl)c3)c2cc1OCCCN1CCOCC1 [Gefitinib]
drug sensitivity score (UT-SCC-40; [1]): 6.87 ± 1.9 DSS | drug sensitivity score (UT-SCC-40; [2]): 2.33 ± 2.6 DSS | drug sensitivity score (UT-SCC-40; [3]): 3.7 ± 0.7 DSS | drug sensitivity score (UT-SCC-40; [4]): 0.433 ± 0.51 DSS | drug sensitivity score (UT-SCC-40; [5]): 0.267 ± 0.25 DSS | drug sensitivity score (UT-SCC-73; [1]): 0.0667 ± 0.12 DSS | drug sensitivity score (UT-SCC-73; [2]): 1.73 ± 3 DSS | drug sensitivity score (UT-SCC-73; [3]): 1.23 ± 2.1 DSS | drug sensitivity score (UT-SCC-73; [4]): 0.133 ± 0.15 DSS | drug sensitivity score (UT-SCC-73; [5]): 0.2 ± 0.27 DSS | drug sensitivity score (UT-SCC-44; [1]): 0 DSS | drug sensitivity score (UT-SCC-44; [2]): 0.567 ± 0.98 DSS | drug sensitivity score (UT-SCC-44; [3]): 0.5 ± 0.7 DSS | drug sensitivity score (UT-SCC-44; [4]): 1.03 ± 1.5 DSS | drug sensitivity score (UT-SCC-44; [5]): 0.167 ± 0.29 DSS | drug sensitivity score (UT-SCC-42A; [2]): 0 DSS | drug sensitivity score (UT-SCC-42A; [3]): 5 ± 4 DSS | drug sensitivity score (UT-SCC-42A; [4]): 1.43 ± 1.6 DSS | drug sensitivity score (UT-SCC-42A; [5]): 2 ± 1.4 DSS | drug sensitivity score (UT-SCC-106A; [1]): 4.63 ± 3.7 DSS | drug sensitivity score (UT-SCC-106A; [2]): 0.4 ± 0.69 DSS | drug sensitivity score (UT-SCC-106A; [3]): 8.13 ± 3.1 DSS | drug sensitivity score (UT-SCC-106A; [4]): 0.1 ± 0.17 DSS | drug sensitivity score (UT-SCC-106A; [5]): 7.53 ± 1 DSS | drug sensitivity score (UT-SCC-42B; [1]): 12.3 ± 6.1 DSS | drug sensitivity score (UT-SCC-42B; [3]): 2.67 ± 4.6 DSS | drug sensitivity score (UT-SCC-42B; [4]): 0 DSS | drug sensitivity score (UT-SCC-42B; [5]): 1.07 ± 1.7 DSS | drug sensitivity score (UT-SCC-14; [2]): 1.63 ± 2.7 DSS | drug sensitivity score (UT-SCC-14; [3]): 3.87 ± 2.3 DSS | drug sensitivity score (UT-SCC-14; [4]): 3.33 ± 3 DSS | drug sensitivity score (UT-SCC-14; [5]): 2.6 ± 4.5 DSS | drug sensitivity score (UT-SCC-28; [1]): 0.767 ± 1.3 DSS | drug sensitivity score (UT-SCC-28; [2]): 0 DSS | drug sensitivity score (UT-SCC-28; [3]): 0.433 ± 0.75 DSS | drug sensitivity score (UT-SCC-28; [5]): 0 DSS | drug sensitivity score (UT-SCC-24B; [1]): 12.5 ± 1.3 DSS | drug sensitivity score (UT-SCC-24B; [2]): 10.1 ± 3.4 DSS | drug sensitivity score (UT-SCC-24B; [3]): 12.4 ± 1 DSS | drug sensitivity score (UT-SCC-24B; [4]): 5.73 ± 1.2 DSS | drug sensitivity score (UT-SCC-24B; [5]): 17.5 ± 0.64 DSS | drug sensitivity score (UT-SCC-8; [1]): 14 ± 4.7 DSS | drug sensitivity score (UT-SCC-8; [2]): 0 DSS | drug sensitivity score (UT-SCC-8; [3]): 7.87 ± 2.8 DSS | drug sensitivity score (UT-SCC-8; [4]): 2.4 ± 3.8 DSS | drug sensitivity score (UT-SCC-8; [5]): 5.97 ± 4.5 DSS | drug sensitivity score (UT-SCC-81; [1]): 23.2 ± 0.32 DSS | drug sensitivity score (UT-SCC-81; [2]): 1.57 ± 2.7 DSS | drug sensitivity score (UT-SCC-81; [3]): 10.8 ± 5.8 DSS | drug sensitivity score (UT-SCC-81; [4]): 1 ± 1.1 DSS | drug sensitivity score (UT-SCC-81; [5]): 3.83 ± 5.2 DSS | drug sensitivity score (UT-SCC-24A; [1]): 21.1 ± 1.1 DSS | drug sensitivity score (UT-SCC-24A; [3]): 17 ± 2.1 DSS | drug sensitivity score (UT-SCC-24A; [4]): 3.27 ± 2.5 DSS | drug sensitivity score (UT-SCC-24A; [5]): 16.4 ± 3.7 DSS
